Data on 2 compounds can be found in PMC10057893, “Synthesis and Biological Evaluation of New Schiff Bases Derived from 4-Amino-5-(3-fluorophenyl)-1,2,4-triazole-3-thione” (Molecules, 2023).

Converted amounts (≈) assume the structure as drawn. Where two headings read alike, the source gives them in different places.

Data set [1] concerns Bacillus subtilis ATCC 6633. The data set is described as follows: Broth microdilution MIC/MBC, antibacterial. In kind it is cell-based. The following applies: ATCC6633. The method, then: (§1) The minimal inhibitory concentration (MIC) was determined with the microdilution technique using 96-well polystyrene microplates (Medlab, Poland), as indicated by the European Committee on Antimicrobial Susceptibility Testing (EUCAST) guidelines. In this process, stock solutions of each tested Schiff base dissolved in dimethylsulphoxide (DMSO, Stanlab, Poland) were used at a concentration of 50 mg/mL. Before in vitro antibacterial activity detection, the basic concentration of 1000 µg/mL of each compound was prepared with Mueller–Hinton broth medium (MHB, BioMaxima, Lublin, Poland). The experiment was prepared using Mueller–Hinton broth medium in 96-well microplates. A series of two-fold dilutions of the tested compounds in the concentration range from 0.49 to 1000 μg/mL was made in culture broth medium. Then, 2 μL of bacterial inoculum with a density of 0.5 McFarland standard was added to each well. Each well was filled with a total volume of 100 μL. Then, the microtiter plates were incubated for 18 ± 2 h at 35 °C. After the incubation, the results were spectrophotometrically determined in Biotek ELx800 (Biokom, Janki, Poland) at 600 nm (OD600). The lowest concentration of the tested compounds with the absence of bacterial growth was determined as an MIC. Three replicates for each strain and compound were performed.
(§2) After incubation, 5 μL of the broth media cultured with bacteria or fungi were removed from each well of the plates used in the MIC experiments. Next, they were culturd onto the surface of the MHA medium (BioMaxima, Lublin, Poland) plate for bacteria or MHA +2% glucose plate for yeasts. The inoculated plates were incubated in the conditions mentioned above. After incubation, a visual reading of MBC or MFC values was made. […] Three replicates for each strain and compound were performed.

Data set [2] concerns Escherichia coli ATCC 25922. Briefly: Broth microdilution MIC/MBC, antibacterial. Type of data set: cell-based. As to conditions: ATCC25922, Escherichia coli ATCC 25922. How it is done: as §1, §2
For orientation: Broth dilution looks for growth in wells or tubes with falling amounts of substance.

The test system of data set [3] is Klebsiella pneumoniae ATCC 13883. Briefly: Broth microdilution MIC/MBC, antibacterial. In kind it is cell-based. As to conditions: ATCC13883, Klebsiella pneumoniae ATCC 13883. The method, then: as §1, §2
In data set [4] the test system is Micrococcus luteus ATCC 10240. Briefly: Broth microdilution MIC/MBC, antibacterial. The following applies: ATCC10240. In kind it is cell-based. The method, then:
as §1, §2

For data set [5], the system named is Pseudomonas aeruginosa ATCC 27853. The data set is described as follows: Broth microdilution MIC/MBC, antibacterial. In kind it is cell-based. As to conditions: ATCC27853. The method, then:
as §1, §2

The subject of data set [6] is Staphylococcus aureus ATCC 6538. Briefly: Broth microdilution MIC/MBC, antibacterial. Type of data set: cell-based. The following applies: ATCC6538. How it is done: as §1, §2
Data set [7] concerns Staphylococcus epidermidis ATCC 12228. Briefly: Broth microdilution MIC/MBC, antibacterial. In kind it is cell-based. The following applies: ATCC12228. How it is done:
as §1, §2

Data set [8] concerns Candida albicans ATCC 10231. The data set is described as follows: Broth microdilution MIC/MFC, antifungal. As to conditions: ATCC10231. Type of data set: cell-based. How it is done:
(§3) To determine the antifungal activity of the newly synthesized Schiff bases against the reference strains of Candida spp., the broth microdilution method was used according to the EUCAST [52] and Clinical and Laboratory Standards Institute (CLSI) guidelines with some modifications to the medium. Before in vitro antifungal activity detection, the basic concentration of 1000 µg/mL of each compound was prepared with Mueller–Hinton broth (BioMaxima, Lublin, Poland) supplemented with 2% glucose (MHB+2% glucose). […] The final concentrations of the Schiff bases ranged from […] to 1000 µg/mL. All the reference strains of Candida spp. used were first subcultured to the Mueller–Hinton agar medium (BioMaxima, Lublin, Poland) with 2% glucose (MHA +2% glucose) at 37 °C for 24 h. Next, 2 µL of appropriate fungal suspensions was added to each well containing 100 µL of MHB + 2% glucose and the various concentrations of the tested Schiff bases.
as §2

Another data set concerns Candida auris CDC B11903. Briefly: Broth microdilution MIC/MFC, antifungal. Type of data set: cell-based. The following applies: Candidozyma auris, CDCB11903. The method, then:
as §3, §2

Data set [9] deals with Candida glabrata ATCC 15126. Briefly: Broth microdilution MIC/MFC, antifungal. In kind it is cell-based. As to conditions: Nakaseomyces glabratus, ATCC15126. How it is done:
as §3, §2

Data set [10] deals with Candida glabrata ATCC 90030. Briefly: Broth microdilution MIC/MFC, antifungal. Type of data set: cell-based. The following applies: Nakaseomyces glabratus, ATCC90030. The method, then:
as §3, §2

The test system of data set [11] is Candida krusei ATCC 14243. The data set is described as follows: Broth microdilution MIC/MFC, antifungal. The following applies: Pichia kudriavzevii, ATCC14243. Type of data set: cell-based. How it is done:
as §3, §2

For data set [12], the system named is Candida lusitaniae ATCC 3449. The data set is described as follows: Broth microdilution MIC/MFC, antifungal. Type of data set: cell-based. The following applies: Clavispora lusitaniae, ATCC3449. The method, then:
as §3, §2

For data set [13], the system named is Candida tropicalis ATCC 1369. The data set is described as follows: Broth microdilution MIC/MFC, antifungal. In kind it is cell-based. As to conditions: ATCC1369. The method, then: as §3, §2
The subject of another data set is MDA-MB-231. The data set is described as follows: MTT cell viability assay. Type of data set: cell-based, human. The following applies: Homo sapiens, MDA-MB-231, MTT, read-out: Cytotoxic activity IC50. The method, then:
(§4) All the cell lines were purchased from the American Type Culture Collection (ATCC, Rockville, MD, USA) and cultured in strictly defined conditions according to the recommended ATCC protocol. The PC3 cells were cultured in RPMI 1640 (Roswell Park Memorial Institute, Biowest SAS, Nuaillé, France), while the MDA-MB-231 and HaCaT cells were maintained in DMEM (Dulbecco’s Modified Eagle’s Medium, Biowest SAS, Nuaillé, France) supplemented with 1% streptomycin and penicillin and in 10% heat-inactivated fetal bovine serum (FBS, Gibco BRL San Francisco, CA, USA) with 1% streptomycin and penicillin. The cells were incubated in a 37 °C/5% CO2 humidified incubator. They were cultured until 80–90% confluence was achieved. Then, they were harvested by treatment with 0.25% trypsin-0.02% EDTA (Gibco BRL, San Francisco, CA, USA) and used in the experiments. Untreated cells were used as a control. […] After 24 h of incubation, the culture medium was replaced with a fresh medium. […] Then, the medium was aspirated and formed formazan crystals were solubilized by adding isopropanol-DMSO mixture (1:1 vol). The intensity of the dissolved crystals was measured using a UVM 340 reader (ASYS Hitech GmbH, Eugendorf, Austria) at a wavelength of 570 nm. Cell viability was estimated by the percentage of MTT reduction in cells to which the tested compounds were added, compared to the control sample, where only the medium was added. The experiments were repeated three times. The IC50 was calculated using GraphPad Prism 9.0.0 (GraphPad Software).
On the technique in general: Tetrazolium assays rely on reduction of a dye to a coloured formazan, in cell work by metabolically active cells.

Another data set deals with PC3. Briefly: MTT cell viability assay. In kind it is cell-based, human. The following applies: Homo sapiens, PC-3, PC3, MTT, read-out: Cytotoxic activity IC50. The method, then: as §4
The nature of a further data set: MTT cell viability assay. In kind it is cell-based. As to conditions: human, HaCaT cells (immortal keratinocytes), HaCaT normal cell line, read-out: Cytotoxic activity IC50 (converted). The method, then: as §4
For data set [14], the system named is tested strains of bacteria. The arrangement: method as in PMID 25412038. As to conditions: cited from earlier work.
The subject of the next data set is C. albicans. The arrangement: method as in PMID 25412038. The following applies: cited from earlier work.
Data set [15] relates to yeast reference strains (Candida spp.). Briefly: Positive control antifungal, broth microdilution MIC. In kind it is cell-based. As to conditions: range over yeast reference strains. The method, then:
The reference antibiotics used during our studies for the selected species of reference bacteria were ciprofloxacin and cefuroxime (Merck KGaA, Darmstadt, Germany). Nystatin (Merck KGaA, Darmstadt, Germany), a known antifungal antibiotic, was used as a positive control for Candida spp.
All reference antimicrobials against bacteria or fungi were tested in a final concentration range from 0.0049 to 10 µg/mL. The tested Schiff bases were two-fold diluted in the concentration range from 0.49 to 1000 μg/mL in culture broth medium for bacteria or fungi. The medium with DMSO at the final concentrations and without the tested Schiff bases served as a control—no microbial growth inhibition was observed. Three types of control were also carried out simultaneously: (1) serial dilution of the tested Schiff bases in broth medium (without bacteria or fungi) in the same concentration range, (2) a growth control for each strain in broth medium and agar medium for bacteria or fungi, and (3) a negative control of sterile broth or agar medium. […]
After incubation, 5 μL of the broth media cultured with bacteria or fungi were removed from each well of the plates used in the MIC experiments. […] After incubation, a visual reading of MBC or MFC values was made. […]

As usually defined, the MIC is the lowest concentration that inhibits growth of the organism. For orientation: IC50 means the concentration that inhibits the measured activity by half. Usually melting point stands for the temperature of the solid-liquid transition. Take `Fc1ccc(C=Nn2c(-c3cccc(F)c3)n[nH]c2=S)cc1` [RO7, 4-[(4-fluorobenzylidene)amino]-5-(3-fluorophenyl)-2,4-dihydro-3H-1,2,4-triazole-3-thione]: the melting point is 217 to 218 °C. Moreover, the minimum inhibitory concentration (MIC) in data set [1] was above 1000 µg/mL. For the same compound, in data set [2], the minimal inhibitory concentration (MIC) is above 1000 µg/mL. In [3], this compound showed an MIC above 1000 µg/mL. In [4], the MBC is above 1000 µg/mL and the MIC worked out at 250 µg/mL (≈ 0.79 mM). The minimal inhibitory concentration (MIC) in data set [5] is above 1000 µg/mL. In data set [6], the MBC was above 1000 µg/mL and the minimal inhibitory concentration (MIC) was 500 µg/mL (≈ 1.58 mM). In [7], this compound displayed an MBC above 1000 µg/mL and an MIC of 500 µg/mL (≈ 1.58 mM). The compound further gave an MIC in [8] above 1000 µg/mL. Further, the MIC in the data set on Candida auris CDC B11903 is above 1000 µg/mL. In data set [9], this compound displayed an MIC above 1000 µg/mL. In data set [10], this compound gave an MIC above 1000 µg/mL. The compound further came in with an MIC in data set [11] above 1000 µg/mL. In data set [12], this compound displayed an MIC above 1000 µg/mL. In data set [13], this compound registered an MIC above 1000 µg/mL. In the data set with MDA-MB-231 (72 h (table footnote)), the IC50 is above 100 µM. Moreover, the IC50 with MDA-MB-231 (same value in µg/mL) is above 31.6 µg/mL. The IC50 in the data set with PC3 (72 h (table footnote)) was above 100 µM. Further, the IC50 in the data set with PC3 (same value in µg/mL) was above 31.6 µg/mL. Moreover, the IC50 at 72 h in “MTT cell viability assay” (72 h (table footnote)) is above 100 µM. Also, the IC50 at 72 h in the data set “MTT cell viability assay” (same value in µg/mL) is above 31.6 µg/mL. Moreover, the MICs in data set [14] was 16 to 125 µg/mL. Moreover, the minimal inhibitory concentration (MIC) in the data set with C. albicans is 4 µg/mL (≈ 0.0126 mM).

In data set [15], `C[C@@H]1[C@H](O)[C@@H](C)/C=C/C=C/CC/C=C/C=C/C=C/C=C/C(O[C@H]2O[C@H](C)[C@@H](O)[C@H](N)[C@@H]2O)CC2O[C@](O)(CC(O)C(O)CCC(O)CC(O)CC(O)CC(=O)O[C@H]1C)CC(O)C2C(=O)O` (stereo partly shown) [Nystatin] came in with a minimal inhibitory concentration (MIC) of 0.24 to 0.48 µg/mL. In [15] (printed MIC = MBC), this compound displayed an MBC of 0.24 to 0.48 µg/mL.
